Assay: xn = mol fraction of the nth substance listed
Details: 100 kPa, Liquid; for viscosity: Falling or rolling sphere viscometry; for mass density: Vibrating tube method

CCCC[N+]1(C)CCCCC1.[Br-] [N-butyl-N-methylpiperidinium bromide] + O
Details | mass density [kg/m3] | viscosity [mPa·s]
298.15 K, x1 = 0.03 | 1057.7 | 1.991
298.15 K, x1 = 0.06 | 1097.6 | 3.692
298.15 K, x1 = 0.089 | 1126.3 | 6.598
298.15 K, x1 = 0.124 | 1150.5 | 12.67
298.15 K, x1 = 0.159 | 1167.6 | 21.36
298.15 K, x1 = 0.195 | 1180.6 | 35.21
298.15 K, x1 = 0.244 | 1193.3 | 69.27
303.15 K, x1 = 0.03 | 1054.4 | 1.735
303.15 K, x1 = 0.06 | 1094.6 | 3.121
303.15 K, x1 = 0.089 | 1122.9 | 5.435
303.15 K, x1 = 0.124 | 1146.9 | 10.39
303.15 K, x1 = 0.159 | 1164 | 16.98
303.15 K, x1 = 0.195 | 1176.9 | 27.19
303.15 K, x1 = 0.244 | 1189.7 | 51.06
303.15 K, x1 = 0.271 | 1195.4 | 72.65
308.15 K, x1 = 0.03 | 1051.9 | 1.529
308.15 K, x1 = 0.06 | 1091.5 | 2.676
308.15 K, x1 = 0.089 | 1119.4 | 4.553
308.15 K, x1 = 0.124 | 1143.2 | 8.531
308.15 K, x1 = 0.159 | 1160.3 | 13.62
308.15 K, x1 = 0.195 | 1173.3 | 21.32
308.15 K, x1 = 0.244 | 1186.2 | 38.65
308.15 K, x1 = 0.271 | 1191.8 | 53.78
313.15 K, x1 = 0.03 | 1049.3 | 1.359
313.15 K, x1 = 0.06 | 1088.3 | 2.321
313.15 K, x1 = 0.089 | 1116 | 3.88
313.15 K, x1 = 0.124 | 1139.6 | 7.053
313.15 K, x1 = 0.159 | 1156.7 | 11.02
313.15 K, x1 = 0.195 | 1169.7 | 16.99
313.15 K, x1 = 0.244 | 1182.6 | 29.62
313.15 K, x1 = 0.271 | 1188.3 | 40.63
318.15 K, x1 = 0.03 | 1045.6 | 1.215
318.15 K, x1 = 0.06 | 1085.1 | 2.033
318.15 K, x1 = 0.089 | 1112.4 | 3.326
318.15 K, x1 = 0.124 | 1135.9 | 5.797
318.15 K, x1 = 0.159 | 1153 | 9.05
318.15 K, x1 = 0.195 | 1166 | 13.74
318.15 K, x1 = 0.244 | 1179 | 23.16
318.15 K, x1 = 0.271 | 1184.7 | 31.55
323.15 K, x1 = 0.03 | 1042.7 | 1.097
323.15 K, x1 = 0.06 | 1081.8 | 1.798
323.15 K, x1 = 0.089 | 1108.8 | 2.89
323.15 K, x1 = 0.124 | 1132.2 | 4.929
323.15 K, x1 = 0.159 | 1149.3 | 7.56
323.15 K, x1 = 0.195 | 1162.4 | 11.33
323.15 K, x1 = 0.244 | 1175.4 | 18.71
323.15 K, x1 = 0.271 | 1181.2 | 24.85
328.15 K, x1 = 0.03 | 1040 | 0.997
328.15 K, x1 = 0.06 | 1078.4 | 1.603
328.15 K, x1 = 0.089 | 1105.2 | 2.54
328.15 K, x1 = 0.124 | 1128.5 | 4.221
328.15 K, x1 = 0.159 | 1145.5 | 6.369
328.15 K, x1 = 0.195 | 1158.7 | 9.485
328.15 K, x1 = 0.244 | 1171.8 | 15.31
328.15 K, x1 = 0.271 | 1177.6 | 20.06
333.15 K, x1 = 0.03 | 1035.9 | 0.906
333.15 K, x1 = 0.06 | 1075 | 1.441
333.15 K, x1 = 0.089 | 1101.6 | 2.248
333.15 K, x1 = 0.124 | 1124.8 | 3.656
333.15 K, x1 = 0.159 | 1141.8 | 5.446
333.15 K, x1 = 0.195 | 1155 | 8.051
333.15 K, x1 = 0.244 | 1168.2 | 12.77
333.15 K, x1 = 0.271 | 1174 | 16.49
338.15 K, x1 = 0.03 | 1031.9 | 0.828
338.15 K, x1 = 0.06 | 1071.4 | 1.302
338.15 K, x1 = 0.089 | 1097.9 | 2.006
338.15 K, x1 = 0.124 | 1121 | 3.199
338.15 K, x1 = 0.159 | 1138 | 4.666
338.15 K, x1 = 0.195 | 1151.3 | 6.86
338.15 K, x1 = 0.244 | 1164.5 | 10.74
338.15 K, x1 = 0.271 | 1170.4 | 13.75
343.15 K, x1 = 0.03 | 1027.2 | 0.761
343.15 K, x1 = 0.06 | 1067.6 | 1.185
343.15 K, x1 = 0.089 | 1094.1 | 1.806
343.15 K, x1 = 0.124 | 1117.2 | 2.715
343.15 K, x1 = 0.159 | 1134.3 | 4.069
343.15 K, x1 = 0.195 | 1147.6 | 5.932
343.15 K, x1 = 0.244 | 1160.9 | 9.231
343.15 K, x1 = 0.271 | 1166.8 | 11.68
348.15 K, x1 = 0.03 | 1023.3 | 0.7
348.15 K, x1 = 0.06 | 1064.1 | 1.083
348.15 K, x1 = 0.089 | 1090.4 | 1.629
348.15 K, x1 = 0.124 | 1113.4 | 2.428
348.15 K, x1 = 0.159 | 1130.5 | 3.568
348.15 K, x1 = 0.195 | 1143.8 | 5.143
348.15 K, x1 = 0.244 | 1157.2 | 7.953
348.15 K, x1 = 0.271 | 1163.2 | 9.976

Source: the NIST ThermoML archive (doi:10.1016/j.tca.2018.11.018)
